Test system: U87MG cells
Assay: Cytotoxicity assay (cell viability, CellTiter 96 Aqueous MTS)
Assay type: cell-based
Settings: Homo sapiens, U-87 MG, 72 h, 72 hours incubation, starting concentration 50 uM, 9 point half log dilution, average where tested repeatedly
Method: Example 3: Cytotoxicity Assay
U87MG cells were plated at a density of 7×10^3 cells/well and allowed to seed overnight. Cells were then treated with compounds from Table 1 or CMPD-1 (4-(2′-fluoro-[1,1′-biphenyl]-4-yl)-N-(4-hydroxyphenyl)butanamide as a positive control) were added to cells at a starting concentration of 50 uM, with a 9 point half log dilution, and incubated for 72 hours prior to viability determination. IC50 values were calculated from cell viability as measured using the CellTiter 96® Aqueous MTS reagent from Promega©, and the results are shown in Table 2.

First: COc1ccc(CC(=O)NCCCc2ccc(-c3ccccc3F)cc2)cc1F [Compound 126, 2-(3-fluoro-4-methoxyphenyl)-N-(3-(2′-fluoro-[1,1′-biphenyl]-4-yl)propyl)acetamide]
Second: Cc1ccc(CC(=O)NCCCc2ccc(-c3ccccc3F)cc2)cc1 [Compound 140, N-(3-(2′-fluoro-[1,1′-biphenyl]-4-yl)propyl)-2-(p-tolyl)acetamide]
The IC50 of the first is higher: 1000 to 5000 nM for the first, under 500 nM for the second.

`Cc1cc(C(=O)NCCCc2ccc(-c3ccccc3F)cc2)cc(C)c1O` [Compound 127, N-(3-(2′-fluoro-[1,1′-biphenyl]-4-yl)propyl)-4-hydroxy-3,5-dimethylbenzamide] and `Cc1noc(C)c1C(=O)NCCCc1ccc(-c2ccccc2F)cc1` [Compound 144, N-(3-(2′-fluoro-[1,1′-biphenyl]-4-yl)propyl)-3,5-dimethylisoxazole-4-carboxamide] cannot be ordered by IC50: over 5000 nM for the first, over 5000 nM for the second.

`Cc1cc(C(=O)NCCCc2ccc(-c3ccccc3F)cc2)on1` [Compound 128, N-(3-(2′-fluoro-[1,1′-biphenyl]-4-yl)propyl)-3-methylisoxazole-5-carboxamide] and `Cc1cc(C(=O)NCCCc2ccc(-c3ccccc3F)cc2)[nH]n1` [Compound 139, N-(3-(2′-fluoro-[1,1′-biphenyl]-4-yl)propyl)-3-methyl-1H-pyrazole-5-carboxamide] fall in the same range of IC50: 501 to 1000 nM for the first, 501 to 1000 nM for the second.

First: Cn1cncc1C(=O)NCCCc1ccc(-c2ccccc2F)cc1 [Compound 130, N-(3-(2′-fluoro-[1,1′-biphenyl]-4-yl)propyl)-1-methyl-1H-imidazole-5-carboxamide]
Second: Cn1cc(C(=O)NCCCc2ccc(-c3ccccc3F)cc2)cn1 [Compound 146, N-(3-(2′-fluoro-[1,1′-biphenyl]-4-yl)propyl)-1-methyl-1H-pyrazole-4-carboxamide]
The IC50 of the first is higher: over 5000 nM for the first, 1000 to 5000 nM for the second. The second is the more potent here.

`O=C(NCCCc1ccc(-c2ccccc2F)cc1)c1cnco1` [Compound 131, N-(3-(2′-fluoro-[1,1′-biphenyl]-4-yl)propyl)oxazole-5-carboxamide] and `Cc1cnoc1C(=O)NCCCc1ccc(-c2ccccc2F)cc1` [Compound 145, N-(3-(2′-fluoro-[1,1′-biphenyl]-4-yl)propyl)-4-methylisoxazole-5-carboxamide] cannot be ordered by IC50: over 5000 nM for the first, over 5000 nM for the second.

`Cc1cnc(C(=O)NCCCc2ccc(-c3ccccc3F)cc2)s1` [Compound 132, N-(3-(2′-fluoro-[1,1′-biphenyl]-4-yl)propyl)-5-methylthiazole-2-carboxamide] and `Cc1nc(C(=O)NCCCc2ccc(-c3ccccc3F)cc2)cs1` [Compound 141, N-(3-(2′-fluoro-[1,1′-biphenyl]-4-yl)propyl)-2-methylthiazole-4-carboxamide] cannot be ordered by IC50: over 5000 nM for the first, over 5000 nM for the second.

`Cc1nn(C)cc1C(=O)NCCCc1ccc(-c2ccccc2F)cc1` [Compound 133, N-(3-(2′-fluoro-[1,1′-biphenyl]-4-yl)propyl)-1,3-dimethyl-1H-pyrazole-4-carboxamide] and `CC(C)c1cc(C(=O)NCCCc2ccc(-c3ccccc3F)cc2)n(C)n1` [Compound 142, N-(3-(2′-fluoro-[1,1′-biphenyl]-4-yl)propyl)-3-isopropyl-1-methyl-1H-pyrazole-5-carboxamide] cannot be ordered by IC50: over 5000 nM for the first, over 5000 nM for the second.

`O=C(NCCCc1ccc(-c2ccccc2F)cc1)c1ccc[nH]1` [Compound 134, N-(3-(2′-fluoro-[1,1′-biphenyl]-4-yl)propyl)-1H-pyrrole-2-carboxamide] and `O=C(NCCCc1ccc(-c2ccccc2F)cc1)c1cnc2ccccn12` [Compound 137, N-(3-(2′-fluoro-[1,1′-biphenyl]-4-yl)propyl)imidazo[1,2-a]pyridine-3-carboxamide] fall in the same range of IC50: 1000 to 5000 nM for the first, 1000 to 5000 nM for the second.

Compared with `Cn1nc2ccccc2c1C(=O)NCCCc1ccc(-c2ccccc2F)cc1` [Compound 143, N-(3-(2′-fluoro-[1,1′-biphenyl]-4-yl)propyl)-2-methyl-2H-indazole-3-carboxamide], `Cn1cc2c(-c3ccc(CCCC(=O)Nc4cccnc4)cc3)cccc2n1` [Compound 165, 4-(4-(2-methyl-2H-indazol-4-yl)phenyl)-N-(pyridin-3-yl)butanamide] is lower in IC50: over 5000 nM for the first, 1000 to 5000 nM for the second.

First: Cn1ncc2cc(-c3ccc(CCCC(=O)Nc4cccnc4)cc3)ccc21 [Compound 148, 4-(4-(1-methyl-1H-indazol-5-yl)phenyl)-N-(pyridin-3-yl)butanamide]
Second: Cn1ncc2ccc(-c3ccc(CCCC(=O)Nc4cccnc4)cc3)cc21 [Compound 166, 4-(4-(1-methyl-1H-indazol-6-yl)phenyl)-N-(pyridin-3-yl)butanamide]
The IC50 of the first is lower: under 500 nM for the first, 1000 to 5000 nM for the second. The first is the more potent here.

First: O=C(CCCc1ccc(-c2cccc(F)c2F)cc1)Nc1cccnc1 [Compound 149, 4-(2′,3′-difluoro-[1,1′-biphenyl]-4-yl)-N-(pyridin-3-yl)butanamide]
Second: O=C(CCCc1ccc(-c2c(F)cccc2F)cc1)Nc1cccnc1 [Compound 159, 4-(2′,6′-difluoro-[1,1′-biphenyl]-4-yl)-N-(pyridin-3-yl)butanamide]
The IC50 of the first is lower: 501 to 1000 nM for the first, 1000 to 5000 nM for the second. The first is the more potent here.

Compared with `O=C(CCCc1ccc(-c2ccccc2)cc1)Nc1cccnc1` [Compound 151, 4-([1,1′-biphenyl]-4-yl)-N-(pyridin-3-yl)butanamide], `Cc1ccccc1-c1ccc(CCCC(=O)Nc2cccnc2)cc1` [Compound 152, 4-(2′-methyl-[1,1′-biphenyl]-4-yl)-N-(pyridin-3-yl)butanamide] is higher in IC50: 1000 to 5000 nM for the first, over 5000 nM for the second. The first is the more potent here.

`Cc1ccc(-c2ccc(CCCC(=O)Nc3cccnc3)cc2)cn1` [Compound 153, 4-(4-(6-methylpyridin-3-yl)phenyl)-N-(pyridin-3-yl)butanamide] and `COc1ccc(-c2ccc(CCCC(=O)Nc3cccnc3)cc2)cn1` [Compound 167, 4-(4-(6-methoxypyridin-3-yl)phenyl)-N-(pyridin-3-yl)butanamide] cannot be ordered by IC50: over 5000 nM for the first, over 5000 nM for the second.

`O=C(CCCc1ccc(-c2ccccc2OC(F)(F)F)cc1)Nc1cccnc1` [Compound 154, N-(pyridin-3-yl)-4-(2′-(trifluoromethoxy)-[1,1′-biphenyl]-4-yl)butanamide] and `O=C(CCCc1ccc(-c2ccccc2Cl)cc1)Nc1cccnc1` [Compound 160, 4-(2′-chloro-[1,1′-biphenyl]-4-yl)-N-(pyridin-3-yl)butanamide] fall in the same range of IC50: 1000 to 5000 nM for the first, 1000 to 5000 nM for the second.

First: O=C(CCCc1ccc(-c2ccc(C(F)(F)F)nc2)cc1)Nc1cccnc1 [Compound 155, N-(pyridin-3-yl)-4-(4-(6-(trifluoromethyl)pyridin-3-yl)phenyl)butanamide]
Second: O=C(CCCc1ccc(-c2cccnc2)cc1)Nc1cccnc1 [Compound 158, N-(pyridin-3-yl)-4-(4-(pyridin-3-yl)phenyl)butanamide]
The IC50 of the first is lower: 501 to 1000 nM for the first, over 5000 nM for the second. The first is the more potent here.

Compared with `Cc1cc(-c2ccc(CCCC(=O)Nc3cccnc3)cc2)ccn1` [Compound 156, 4-(4-(2-methylpyridin-4-yl)phenyl)-N-(pyridin-3-yl)butanamide], `O=C(CCCc1ccc(-c2ccc3ocnc3c2)cc1)Nc1cccnc1` [Compound 173, 4-(4-(benzo[d]oxazol-5-yl)phenyl)-N-(pyridin-3-yl)butanamide] is lower in IC50: over 5000 nM for the first, 501 to 1000 nM for the second. The second is the more potent here.

Compared with `O=C(CCCc1ccc(-c2ccc(F)cc2F)cc1)Nc1cccnc1` [Compound 157, 4-(2′,4′-difluoro-[1,1′-biphenyl]-4-yl)-N-(pyridin-3-yl)butanamide], `O=C(CCCc1ccc(-c2cc(Cl)ccc2F)cc1)Nc1cccnc1` [Compound 179, 4-(5′-chloro-2′-fluoro-[1,1′-biphenyl]-4-yl)-N-(pyridin-3-yl)butanamide] is higher in IC50: 1000 to 5000 nM for the first, over 5000 nM for the second. The first is the more potent here.

First: O=C(CCCc1ccc(-c2ccc3nonc3c2)cc1)Nc1cccnc1 [Compound 161, 4-(4-(benzo[c][1,2,5]oxadiazol-5-yl)phenyl)-N-(pyridin-3-yl)butanamide]
Second: Cn1cc2cc(-c3ccc(CCCC(=O)Nc4cccnc4)cc3)ccc2n1 [Compound 164, 4-(4-(2-methyl-2H-indazol-5-yl)phenyl)-N-(pyridin-3-yl)butanamide]
The IC50 of the first is higher: over 5000 nM for the first, 501 to 1000 nM for the second.

`O=C(CCCc1ccc(-c2ccc3c(c2)OCCO3)cc1)Nc1cccnc1` [Compound 162, 4-(4-(2,3-dihydrobenzo[b][1,4]dioxin-6-yl)phenyl)-N-(pyridin-3-yl)butanamide] and `O=C(CCCc1ccc(-c2ccc3c(c2)NC(=O)C3)cc1)Nc1cccnc1` [Compound 177, 4-(4-(2-oxoindolin-6-yl)phenyl)-N-(pyridin-3-yl)butanamide] fall in the same range of IC50: 501 to 1000 nM for the first, 501 to 1000 nM for the second.

Compared with `O=C(CCCc1ccc(-c2ccc3ncccc3c2)cc1)Nc1cccnc1` [Compound 163, N-(pyridin-3-yl)-4-(4-(quinolin-6-yl)phenyl)butanamide], `Cn1ccc2cc(-c3ccc(CCCC(=O)Nc4cccnc4)cc3)ccc21` [Compound 169, 4-(4-(1-methyl-1H-indol-5-yl)phenyl)-N-(pyridin-3-yl)butanamide] is higher in IC50: under 500 nM for the first, 501 to 1000 nM for the second.

Compared with `COc1ccc(-c2ccc(CCCC(=O)Nc3cccnc3)cc2)cc1OC` [Compound 168, 4-(3′,4′-dimethoxy-[1,1′-biphenyl]-4-yl)-N-(pyridin-3-yl)butanamide], `COc1ccc(F)c(-c2ccc(CCCC(=O)Nc3cccnc3)cc2)c1` [Compound 175, 4-(2′-fluoro-5′-methoxy-[1,1′-biphenyl]-4-yl)-N-(pyridin-3-yl)butanamide] is lower in IC50: 1000 to 5000 nM for the first, 501 to 1000 nM for the second.

Compared with `O=C(CCCc1ccc(-c2cn[nH]c2)cc1)Nc1cccnc1` [Compound 176, 4-(4-(1H-pyrazol-4-yl)phenyl)-N-(pyridin-3-yl)butanamide], `Cc1c(-c2ccc(CCCC(=O)Nc3cccnc3)cc2)ccc2[nH]ncc12` [Compound 180, 4-(4-(4-methyl-1H-indazol-5-yl)phenyl)-N-(pyridin-3-yl)butanamide] is lower in IC50: over 5000 nM for the first, under 500 nM for the second. The second is the more potent here.

In the case of `COc1ncccc1-c1ccc(CCCC(=O)Nc2cccnc2)cc1` [Compound 178, 4-(4-(2-methoxypyridin-3-yl)phenyl)-N-(pyridin-3-yl)butanamide], the IC50 is reported as over 5000 nM.
